Source: patent US20140187475A1, “Lantibiotic Compositions and Methods For Preventing or Treating Mastitis” (Medela Holding AG, priority 2012, published 2014)

Tested on: bacteria
Assay: antimicrobial activity of nisin preparations placed on a skin or agar surface
Type: cell-based
Excerpt: Most important in this embodiment is the principle that nisin must be placed in the external aqueous phase of this preparation. […] In an ointment preparation, it is retained by the lipid phase and fails to dissipate and kill bacteria.

Nisin
antimicrobial activity (nisin in an ointment preparation with little or no water): largely inactive
antimicrobial activity (nisin in the external aqueous phase of an oil in water emulsion, placed on a skin or agar surface): highly active
